Assay results as given in PubChem BioAssay (NCI).
Several values for one entry are separate records, joined by “and”; a condition that tells them apart may be missing. Equal entries are not always repeated.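 Test compounds were applied to cells in 96-well plates for 48 hours at 5 doses. GI50 marks 50% less growth. TGI: total growth inhibition.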

Key:
Experiment in all cases: NCI-60 cell line screen, 48 h
KM12 colon = test system: KM12 colon
OVCAR-8 ovarian = test system: OVCAR-8 ovarian
UACC-62 melanoma = test system: UACC-62 melanoma
SF-539 CNS = test system: SF-539 CNS
U251 CNS = test system: U251 CNS
RPMI-8226 leukemia = test system: RPMI-8226 leukemia
LOX IMVI melanoma = test system: LOX IMVI melanoma
SK-MEL-5 melanoma = test system: SK-MEL-5 melanoma
NCI-H460 lung = test system: NCI-H460 lung
HCT-15 colon = test system: HCT-15 colon

Structure (SMILES) | GI50 (KM12 colon) | TGI (KM12 colon) | GI50 (OVCAR-8 ovarian) | TGI (OVCAR-8 ovarian) | GI50 (UACC-62 melanoma) | TGI (UACC-62 melanoma) | GI50 (SF-539 CNS) | TGI (SF-539 CNS) | GI50 (U251 CNS) | TGI (U251 CNS) | GI50 (RPMI-8226 leukemia) | TGI (RPMI-8226 leukemia) | GI50 (LOX IMVI melanoma) | TGI (LOX IMVI melanoma) | GI50 (SK-MEL-5 melanoma) | TGI (SK-MEL-5 melanoma) | GI50 (NCI-H460 lung) | TGI (NCI-H460 lung) | GI50 (HCT-15 colon) | TGI (HCT-15 colon)
COCCn1c(Nc2ccc(C(=O)NO)cc2)nc2ccccc21 | 3.65 µM | 15.1 µM | 2.69 µM | 16 µM | 2.06 µM | 10.5 µM | 4.56 µM | 25.1 µM | 3.99 µM | 18.6 µM | 3.7 µM | > 100 µM | 5.9 µM | 19 µM | 3.55 µM | 12.9 µM | 4.06 µM | 30.4 µM | 9.14 µM | 31.5 µM
O=S(=O)(c1ccccc1)N1CCC1c1ccccc1 (configuration not stated) | – | > 100 µM | – | > 100 µM | – | > 100 µM | – | > 100 µM | – | > 100 µM | – | > 100 µM | – | > 100 µM | – | > 100 µM | – | > 100 µM | – | > 100 µM
CN(C)CCN1C(=O)c2cccc3cc(N)cc(c23)C1=O | 3.32 µM | 26.5 µM and 25.5 µM | 2.46 µM | 30.5 µM and 7.38 µM | 2.89 µM | 11.7 µM and 8.02 µM | – | 18.2 µM and 14.7 µM | 2.85 µM | > 46.7 µM and 20.6 µM | 3.37 µM | 25.2 µM and 19.9 µM | 2.18 µM | > 31.3 µM and 7.29 µM | 1.88 µM | 4.44 µM and 6.46 µM | – | 5.34 µM and 5.95 µM | – | > 50 µM and 16 µM
Cc1cnoc1/N=C1\C=C(Nc2oncc2C)C(=O)c2ccccc21 | – | > 100 µM | – | > 100 µM | – | > 100 µM | – | > 100 µM | – | > 100 µM | – | > 100 µM | – | > 100 µM | – | > 100 µM | – | > 100 µM | – | > 100 µM
O=C(c1ccccc1)c1nc2ccc(Cl)cc2cc1C(Br)Br | – | 1.06 µM | – | 1.32 µM | – | 2.06 µM | – | 0.537 µM | – | 0.674 µM | – | 1.18 µM | – | 3.7 µM | – | 2.01 µM | – | 1.31 µM | – | 0.879 µM
CC(C)CC(NC(=O)C(O)C(N)Cc1ccccc1)C(=O)O (configuration not stated) | – | > 100 µM | – | > 100 µM | – | > 100 µM | – | > 100 µM | – | > 100 µM | – | > 100 µM | – | > 100 µM | – | > 100 µM | – | > 100 µM | – | > 100 µM
CC(C)(Sc1cc(C(C)(C)C)c(O)c(C(C)(C)C)c1)Sc1cc(C(C)(C)C)c(O)c(C(C)(C)C)c1 | – | > 100 µM | – | > 100 µM | – | > 100 µM | – | > 100 µM | – | > 100 µM | – | > 100 µM | – | > 100 µM | – | > 100 µM | – | > 100 µM | – | > 100 µM
Cc1cc(NC(=O)NCCCOc2ccc(N3C(N)=NC(N)=NC3(C)C)cc2Cl)ccc1S(=O)(=O)F | 0.631 µM | 17 µM | 2.52 µM | > 100 µM | 0.608 µM | 24.9 µM | 2.85 µM | 31.7 µM | 0.492 µM | 19.7 µM | 5.78 µM | > 100 µM | 0.479 µM | > 100 µM | 0.492 µM | 11.1 µM | 0.259 µM | 14.7 µM | 39.2 µM | > 100 µM
Clc1ccc(NCNC2Nc3ccccc3N2)cc1Cl | – | 92.5 µM | – | 46.6 µM | – | > 100 µM | – | > 100 µM | – | > 100 µM | – | > 100 µM | – | > 100 µM | – | 54.6 µM | – | > 100 µM | – | > 100 µM
CC[C@@H]1C(=O)N(C)c2cnc(Nc3ccc(C(=O)NC4CCC(N5CCN(CC6CC6)CC5)CC4)cc3OC)nc2N1C(C)C (some centres not stated) | 0.0069 µM and < 0.01 µM | > 10 µM and 8.15 µM | 0.0242 µM and 0.033 µM | > 10 µM and 1.65 µM | 0.0356 µM and 0.0388 µM | > 8.3 µM and 13.3 µM | 0.0409 µM and 0.0372 µM | 1.36 µM and 1.48 µM | 0.0263 µM and 0.0276 µM | > 7.97 µM and 2.14 µM | 0.0382 µM and 0.0558 µM | 1.62 µM and 1.89 µM | 0.0254 µM and 0.0339 µM | 1.6 µM and 1.67 µM | 0.0409 µM and 0.0472 µM | 0.517 µM and 0.654 µM | 0.0123 µM and 0.0297 µM | > 10 µM and 1.86 µM | 0.0686 µM and 0.145 µM | > 6.64 µM and 5.33 µM
CN1CCC2(CC1)C(=O)Nc1cc(NC(=O)c3ccc4c(c3)C[C@@H]3C(C)(C)[C@H](O)[C@H](F)C[C@@]3(C)O4)ccc12 | 1.38 µM | 17.7 µM | 26.6 µM | > 100 µM | 0.405 µM | 5.13 µM | 0.0565 µM | 15.9 µM | 0.0472 µM | 16.4 µM | 0.0272 µM | 10.8 µM | 0.55 µM | 12.5 µM | 2.62 µM | 12.3 µM | 0.684 µM | 25.4 µM | 11 µM | 45.8 µM
CCOC(=O)c1sc2nc(=S)[nH]c(NC(N)=S)c2c1C | 23.5 µM | 52.7 µM | 25.4 µM | 63.3 µM | 12.4 µM | 26.1 µM | 11.9 µM | 25.4 µM | 17.2 µM | 36.8 µM | 18.4 µM | 49.9 µM | 15.4 µM | 31 µM | 16.8 µM | 31.7 µM | 23.2 µM | 61 µM | 16.7 µM | 39.2 µM
O=C(O)c1c2c(c(O)c3c1CN(C1CCCCC1)CO3)OCN(C1CCCCC1)C2 | – | > 100 µM | – | > 100 µM | – | > 100 µM | – | > 100 µM | – | > 100 µM | – | > 100 µM | – | 39.7 µM | – | > 100 µM | – | 35.1 µM | – | > 100 µM
COc1ccc(CC(C)NCC(O)c2ccc(O)c(NC=O)c2)cc1 (configuration not stated) | – | > 100 µM | – | > 100 µM | – | > 100 µM | – | > 100 µM | – | > 100 µM | – | > 100 µM | – | > 100 µM | – | > 100 µM | – | > 100 µM | – | > 100 µM
CN(C)C(=C1C(Br)=C(Br)C(Br)=C1Br)N(C)C | – | > 100 µM | – | > 100 µM | – | > 100 µM | – | > 100 µM | – | > 100 µM | – | 76.7 µM | – | 55.6 µM | – | > 100 µM | – | > 100 µM | – | > 100 µM
COc1cc2c(cc1OCCCCCOc1ccc(-c3nc4ccccc4s3)cc1)N=C[C@@H]1CCCN1C2=O | 4.38 µM | 22.9 µM | 3.13 µM | 21.1 µM | 3.27 µM | 7.93 µM | 1.58 µM | 6.09 µM | 1.47 µM | 16.1 µM | 1.03 µM | 4.14 µM | 0.983 µM | 4.37 µM | 0.934 µM | 3.88 µM | 1.27 µM | 7.66 µM | 2.46 µM | 22.2 µM
